{"source": "patent US20160361391A1", "about": "“REDUCTION OF TRAF1 LEVELS COMBINED WITH NUTRIENT STRESS FOR TREATING LYMPHOCYTE-RELATED CANCERS” (THE GOVERNING COUNCIL OF THE UNIVERSITY OF TORONTO, priority 2014, published 2016)", "type_in_all_cases": "cell-based, human", "key": {"RAJI cells [1]": {"test_system": "RAJI cells", "assay": "Annexin V / propidium iodide cell death by flow cytometry, RAJI", "conditions": "1 IU/ml Erwinase", "experimental": "RAJI cells stably expressing control shRNA (shCtrl), TRAF1 shRNA (shTRAF1) or PKN1 shRNA (shPKN1) were left untreated or treated with 1 IU/ml Erwinase for the indicated time points. For cells treated with Erwinase for longer than 24 hrs, cell culture media was replaced every 24 hrs and 1 IU/ml Erwinase was added to ensure the continued absence of glutamine. Cells were then stained with Annexin V-FITC (ebioscience) and Propidium Iodide (PI) and then analyzed by flow cytometry (BD LSR Fortessa). The upper right quadrant (Q2) indicates the fraction dead cells.\n(§1) (A) Whole cell extracts from RAJI cells treated with control shRNA (shCTRL) or TRAF2 shRNA (shTRAF2) were immunoblotted for TRAF2 or as a loading control, GAPDH. (B) Annexin V staining of RAJI after Erwinase treatment (1 IU/ml; 24 hrs) in shCTRL, shTRAF1 or shTRAF2 cells.\n(§2) It was next asked what the effect of reducing TRAF1 and its signalling partner TRAF2 in lymphoma had on cell proliferation and survival. […] To determine whether this effect was due to death of the lymphoma cells, Annexin V and propidium iodide (PI) staining of the lymphomas were analyzed at different times after transfer to Erwinase containing medium. Annexin V binds to phosphatidyl serine, which becomes exposed on the surface of cells as they undergo apoptosis. Then, cells become permeable to propidium iodide upon death. […] The slightly greater effect on cell death of direct TRAF1 knockdown compared to PKN1 knockdown is consistent with the smaller effect of PKN1 knockdown on TRAF1 levels compared to direct TRAF1 knockdown with shTRAF1."}, "Erk and NF-κB activation": {"test_system": "Erk and NF-κB activation", "assay": "Flow cytometry for pERK and phospho P65 subunit of NFkB", "conditions": "RAJI knockdown cells versus control sample", "text": "as §1\n(§3) TRAF2 knockdown also decreases RAJI survival in the presence of Erwinase (FIG. 14). […] On the Y axis, is indicated knockdown of TRAF2, PKN1, TRAF1 or control sample. The vertical dashed line indicates the peak level of expression in the control sample for comparison with the knockdown cells."}, "TRAF1 [2]": {"test_system": "TRAF1", "assay": "TRAF1 levels by flow cytometry in knockdown RAJI", "conditions": "RAJI knockdown cells versus control sample", "text": "as §1, §3"}, "[3]": {"test_system": "Chronic lymphocytic leukemia cell line MEC2", "assay": "Annexin V / propidium iodide cell death by flow cytometry, MEC2", "conditions": "MEC2, 1 IU/ml Erwinase, 0, 18, 24 or 42 hrs", "experimental": "MEC2 cells were transfected with control shRNA (shCTRL), shTRAF1 or shPKN1 and then were left untreated or treated with 1 IU/ml Erwinase for 0, 18, 24 or 42 hrs. Cell death was measured by flow cytometry for Annexin V and propidium iodide (PI), where double staining for Annexin V and Propidium iodide (PI) is used to indicate cell death."}, "mTORC1": {"test_system": "mTORC1", "assay": "pS6K / pS6 level as marker of mTORC1 activation", "conditions": "RAJI lymphoma cells", "text": "Left: Levels of pS6K in RAJI control cells. Right: Levels of pS6K in RAJI shTRAF1. Upper panels show pS6K, lower panels show GAPDH to control for equal loading. B. Schematic showing link between nutrient stress, mTORC1 and pS6. C. Left: Representative flow cytometry analysis of TRAF1 and phospho-S6 expression in Raji shCTRL and Raji shTraf1 cells. […] FMO is fluorescence minus one control stain. Right: Correlation plot of TRAF1 versus phospho-S6 expression in lymphoma and CLL cell lines (gated on live cells). All flow cytometry is based on gating on live cells (using live/dead staining marker).\nIn an effort to understand the mechanism of synergy between lowering TRAF1 levels and increased sensitivity to Erwinase, the activity of mTORC1, a key sensor of the nutrient state of the cells, was examined. Nutrient stress inhibits the activation of mTORC1, a key regulator of proliferation, metabolism and cell survival.^35 PhosphoS6K (pS6K), a downstream target of mTORC1, can be used as a marker of mTORC1 activation. […] However, unexpectedly, TRAF1 knockdown cells had lower basal level of pS6K prior to treatment, perhaps explaining the synergistic effect of TRAF1 knockdown with Erwinase treatment (FIG. 11A—compare right to left western blots). […] Further, a correlation between the level of TRAF1 in the cell and the activity of mTORC1 as measured by pS6 levels was shown (FIG. 11C)."}, "TRAF2": {"test_system": "TRAF2", "assay": "TRAF2 levels by immunoblot during nutrient stress", "conditions": "RAJI cells; for TRAF2 levels during Erwinase treatment: 1 IU/ml Erwinase, up to 6 hrs", "experimental": "(B) Wild type (WT), shCtrl or shTRAF1 RAJI cells were treated with 1 IU/ml Erwinase for 1, 3 or 6 hrs and immunoblotted for TRAF2 and TRAF1.\nRight: RAJI cells stably expressing shCtrl or shPKN1 were treated with 1 IU/ml Erwinase for 0, 3 or 6 hrs and lysates were immunoblotted for TRAF2, or as a loading control, GAPDH.\nTo test the effect of lower levels of TRAF1 on the level of TRAF2 in lymphoma, WT and shTRAF1 RAJI cells were incubated under conditions of nutrient stress (low glutamine). […] In order to mimic conditions of nutrient stress in a manner that can be useful therapeutically, the licensed drug Erwinase (described above) was utilized. […] Of note, in contrast to the work with primary cells, the loss of TRAF2 when TRAF1 is limiting occurred without a need to add reagents to specifically engage a TNFR family member, but rather occurs spontaneously upon nutrient stress."}, "RAJI cells [4]": {"test_system": "RAJI cells", "assay": "MTT cell viability / growth assay", "conditions": "for cell growth / proliferation with Erwinase (MTT) / tumour growth rate (MTT): RAJI; for cell growth / proliferation with Erwinase (MTT): 1 IU/ml Erwinase; for tumour growth rate (MTT): complete culture medium, no Erwinase", "experimental": "MTT reagent was then solubilized with DMSO and absorbance was measured by ELISA plate reader at 560 nm and referenced to absorbance at 620 nm. Data are plotted as fold change relative to untreated shCtrl RAJI cells.\nas §2\nFIG. 7 provides a rationale for a screen for a PKN1 inhibitor that synergizes with Erwinase: In particular, the assay is used to look for inhibitors that act at nanomolar concentration to reduce cell survival. […] Inhibitors that reduce the signal in the MTT assay by at least 3 fold relative to Erwinase alone will be identified as potential PKN1 inhibitors. This initial screen is amenable to a 96 well plate assay in which each drug candidate is tested on control RAJI cells with and without Erwinase as well as shPKN1 RAJI cells with Erwinase. Candidate drugs that lower the signal on control RAJI cells only in the presence but not in the absence of Erwinase, and have no effect on PKN1 knockdown cells treated with Erwinase, represent candidates for kinase inhibitors that act through PKN1 inhibition to reduce TRAF1 levels. The candidates can then be verified by determining the inhibitory effects on TRAF1 levels."}, "TRAF1 [5]": {"test_system": "TRAF1", "assay": "TRAF1 levels by Western blot after shRNA knockdown", "experimental": "Left: RAJI cells were stably transfected with control small hairpin (sh) RNA or with shRNA designed to knockdown expression of TRAF1 (shRNAs obtained from Open Biosystems (TRC library number: TRCN0000056885 sequence: […]) (SEQ ID NO:1)). TRAF1 levels in RAJI expressing shCtrl or with shTRAF1 were analyzed by Western blot. Protein loading was analyzed based on GAPDH levels. Right: TRAF1 levels in B-chronic lymphocytic leukemia (CLL) lines and Daudi CD5+ (a Burkitt's lymphoma with CLL like properties) were determined by Western blot.\nLeft: Schematic diagram of TRAF1 indicating site of phosphorylation by PKN1 as identified by Kato et al.^29 Middle: RAJI cells were stably transfected with control shRNA (shCtrl), TRAF1 shRNA (shTRAF1) or PKN1 shRNA (shPKN1) (obtained from Open Biosystems (TRC library number: TRCN0000001484 sequence: […] (SEQ ID NO:2)). Right: Daudi cells were transduced with control shRNA (shCTRL), shRNA targeting TRAF1 (shTRAF1) or shRNA targeting PKN1 (shPKN1). Cells were analyzed for levels of TRAF1, tubulin or GAPDH by western blot. “Pool” refers to bulk transfected cell lines without subcloning.\nBased on the finding that primary T cells lacking TRAF1 are sensitive to loss of TRAF2 when 4-1 BB signalling is induced during nutrient stress, the role of the reduction of TRAF1 levels combined with nutrient stress on B lymphomas was tested. […]"}, "[6]": {"test_system": "panel of lymphoma and the CLL line MEC2", "assay": "Erwinase sensitivity versus TRAF1 expression in cell line panel", "conditions": "1 IU/ml Erwinase, 24 hours; lines with medium/hi TRAF1 expression", "experimental": "Correlation plot of TRAF1 expression versus Erwinase sensitivity. Cell lines were treated with 1 IU/ml Erwinase for 24 hours and cell death was measured by AnnexinV/PI staining. Erwinase sensitivity is measured as % of cells AnnexinV^+, PI^+ and/or AnnexinV^+/PI^+ cells. Left: Erwinase sensitivity versus TRAF1 expression (measured by flow cytometry, gated on live cells) for a panel of lymphoma and the CLL line MEC2.\nPKN1 stabilizes TRAF1 and TRAF1 serine 146, a target of PKN1 is required for TRAF1 stability (see above). As lowering TRAF1 by PKN1 knockdown increases sensitivity to nutrient stress, knockdown of PKN1 with RNA interference or anti-sense approaches, or inhibition of PKN1 using chemical inhibitors could be used to increase sensitivity to nutrient stress. In order to develop this strategy, biomarker needs to be developed to predict which cancers would be susceptible. To this end, TRAF1 protein expression was measured in a panel of human lymphomas and the CLL cell line MEC2 by flow cytometry and these levels were correlated with sensitivity to the nutrient stress-inducing drug Erwinase. […] However, in cells that express TRAF1 above an MFI of 1500, there was a strong correlation between TRAF1 levels and resistance to cell death induced by nutrient stress (FIG. 13). Cancers with these properties are candidates for therapy with PKN1 in combination with nutrient stress."}}, "data": [{"molecule": "shTRAF2: shRNA to TRAF2, mature antisense ATGGCGTGGAATCTGCAAGGG", "values": [{"measurement": "sensitivity to Erwinase induced death (Annexin V/PI)", "setting": "RAJI cells [1]", "value": "increased susceptibility to Erwinase-mediated nutrient stress"}, {"measurement": "constitutive Erk and NF-κB activation", "setting": "Erk and NF-κB activation", "value": "reduces constitutive Erk and NF-κB activation"}, {"measurement": "TRAF1 levels (flow cytometry)", "setting": "TRAF1 [2]", "value": "lowers TRAF1 levels"}]}, {"molecule": "shTRAF1: shRNA designed to knockdown expression of TRAF1, sequence CGTGTGTTTGAGAACATTG (Open Biosystems TRC library)", "values": [{"measurement": "sensitivity to Erwinase induced death (Annexin V/PI)", "setting": "[3]", "value": "increases the sensitivity of the Chronic lymphocytic leukemia cell line MEC2 to Erwinase induced death"}, {"measurement": "level of pS6K / pS6", "setting": "mTORC1", "value": "levels of pS6 are lower"}, {"measurement": "TRAF2 level under low glutamine", "setting": "TRAF2; nutrient stress (low glutamine), versus WT", "value": "TRAF2 was lost"}, {"measurement": "sensitivity to Erwinase induced death (Annexin V/PI)", "setting": "RAJI cells [1]", "value": "Increases the Sensitivity of RAJI to Erwinase Induced Death"}, {"measurement": "constitutive Erk and NF-κB activation", "setting": "Erk and NF-κB activation", "value": "reduces constitutive Erk and NF-κB activation"}, {"measurement": "cell growth / proliferation with Erwinase (MTT)", "setting": "RAJI cells [4]", "value": "sensitizes lymphoma to growth inhibition by Erwinase"}, {"measurement": "tumour growth rate (MTT)", "setting": "RAJI cells [4]", "value": "no impact on the tumour growth rate"}, {"measurement": "TRAF1 levels", "setting": "TRAF1 [5]; RAJI stably expressing shRNA, versus control treated RAJI", "value": "substantially lower levels of TRAF1"}]}, {"molecule": "shPKN1: shRNA targeting PKN1, sequence CTGATGTGTGAGAAGCGGA (Open Biosystems TRC library)", "values": [{"measurement": "sensitivity to Erwinase induced death (Annexin V/PI)", "setting": "[3]", "value": "increases the sensitivity of the Chronic lymphocytic leukemia cell line MEC2 to Erwinase induced death"}, {"measurement": "TRAF2 levels during Erwinase treatment", "setting": "TRAF2", "value": "sensitizes RAJI cells to TRAF2 loss during nutrient stress"}, {"measurement": "sensitivity to Erwinase induced death (Annexin V/PI)", "setting": "RAJI cells [1]", "value": "Increases the Sensitivity of RAJI to Erwinase Induced Death"}, {"measurement": "cell growth / proliferation with Erwinase (MTT)", "setting": "RAJI cells [4]", "value": "sensitizes lymphoma to growth inhibition by Erwinase"}, {"measurement": "tumour growth rate (MTT)", "setting": "RAJI cells [4]", "value": "no impact on the tumour growth rate"}, {"measurement": "TRAF1 levels", "setting": "TRAF1 [5]; RAJI and Daudi cells with shRNA to PKN1, versus shCtrl", "value": "decreases TRAF1 levels"}]}, {"molecule": "Erwinase: Licensed drug derived from the Asparaginase of Erwinia chrysanthemi; nutrient stress-inducing agent (protein, UniProt P06608 22-348, looked up) L-asparaginase: ADKLPNIVILATGGTIAGSAATGTQTTGYKAGALGVDTLINAVPEVKKLANVKGEQFSNMASENMTGDVVLKLSQRVNELLARDDVDGVVITHGTDTVEESAYFLHLTVKSDKPVVFVAAMRPATAISADGPMNLLEAVRVAGDKQSRGRGVMVVLNDRIGSARYITKTNASTLDTFKANEEGYLGVIIGNRIYYQNRIDKLHTTRSVFDVRGLTSLPKVDILYGYQDDPEYLYDAAIQHGVKGIVYAGMGAGSVSVRGIAGMRKAMEKGVVVIRSTRTGNGIVPPDEELPGLVSDSLNPAHARILLMLALTRTSDPKVIQEYFHTY", "values": [{"measurement": "level of pS6K / pS6", "setting": "mTORC1", "value": "reduced the level of pS6K"}, {"measurement": "TRAF2 levels during Erwinase treatment", "setting": "TRAF2", "value": "significant reduction in TRAF2 levels only when TRAF1 was reduced by shRNA"}, {"measurement": "Erwinase sensitivity (% AnnexinV+ and/or PI+ cells) versus TRAF1 expression", "setting": "[6]", "value": "inverse correlation between TRAF1 levels and Erwinase sensitivity"}, {"measurement": "cell growth / proliferation with Erwinase (MTT)", "setting": "RAJI cells [4]", "value": "arrest in cell growth"}, {"measurement": "impact of Erwinase alone in MTT assay", "setting": "RAJI cells [4]; control RAJI, 1 IU/ml, 48 hr", "value": "minimal impact"}]}]}
